In data set [1] the test system is phenylquinone-induced writhing. Description: phenylquinone writhing (PQW) test, analgesic activity, oral, mice. To be noted: Mus musculus, fasted female white mice, phenylquinone i.p. at 23 or 30 min, ED50 for 50% of mice. It is filed as in vivo. Here is the method: A standard procedure for detecting and comparing the analgesic acitivity of the compounds, for which there is good correlation with human efficacy, is the standard phenylquinone writhing (PQW) test modified from Siegmund, et al., Proc. Soc. Exp. Biol. Med. 95, 729 (1957). A test compound suspended in 1% methylcellulose was given orally to fasted (17-21 hours) female white mice, 5-20 animals per double blind test. Aqueous (0.01% phenyl-p-benzoquinone)phenylquinone was injected intraperitoneally at 23 or 30 minutes later using 0.25 ml per mouse. […] The effective analgesic dose for 50% of the mice (ED50) was calculated by the moving average method of Weil, Biometrics 8, 249 (1952).
(§1) Ideally a low ED50 dosage for PQW and a high ED50 dosage for ST (Straub Tail) is desired.

The nature of the next data set: Straub Tail (ST), oral. As to conditions: mouse, in vivo, mice, high ED50 desired.
Excerpt: as §1
(§2) There is a close correlation between a drug's addiction liability and its ability to cause Straub tail in mice [Shemano and Wendel, Tox. Appl. Pharm., 6, 334-339 (1964)] at doses much below the LD50. […] This property is the basis of a test for detecting new narcotic antagonist drugs.

Data set [2] relates to Straub tail induced by morphine sulfate. Description: narcotic antagonist test: prevention of morphine-induced Straub tail in mice. It is filed as in vivo. As to conditions: test drug s.c. 10 min before morphine sulfate 40 mg/kg s.c., observed 20 min, fasted female CF1 S mice; for ED50: Mus musculus, sc, read-out: ED50, prevention of 90° Straub tail (narcotic antagonism). Here is the method:
as §2
17-21 Hour fasted female CF1 S mice 5 per dose were injected subcutaneously (loose skin inside hind limb) with test drug at 0.67, 2, 6, 18, 54, and 162 mg/kg in 0.20 ml 1% Methocel® per mouse. 10 Minutes later, a dosage of 40 mg/kg (base weight) of morphine sulfate in 0.20 ml 1% Methocel® per mouse was given subcutaneously (nape of neck). The mice were observed continuously for the next 20 minutes after the first mouse of a group of 30 had received morphine. Prevention of a 90° Straub tail during this observation period was taken as indication of narcotic antagonist ability. The table below gives the results for several compounds.

Data set [3] concerns Straub tail in mice induced by morphine. To be noted: Blumberg, Dayton, and Wolf 1968; cited from earlier work.

Structures can show the parent of a compound that is named as a salt. A value given as a limit tells only on which side of the number the result lay.

Consider `CC1=C(C)C[C@]2(c3cccc(O)c3)CN(CC3CC3)C[C@H]2C1` (relative stereo) [drawing 69], for which the ED50 is 120 mg/kg in data set [1] and over 162 mg/kg in the data set “Straub Tail (ST), oral”. For the compound `CC1=C(C)C[C@]2(c3cccc(O)c3)CN(CC3CC3)C[C@H]2C1` (relative stereo) [Example 2, N-Cyclopropylmethyl-3a-(m-hydroxyphenyl)-5,6-dimethyl-2,3,3a,4,7,7a-trans-hexahydroisoindole], in data set [2], the median effective dose (ED50) was found to be 5.2 mg/kg. Regarding `C=CCN1CC[C@]23c4c5ccc(O)c4O[C@H]2[C@@H](O)C=C[C@H]3[C@H]1C5` [nalorphine], in data set [3], the “prevention of the induction of Straub tail” value (“prevention … of Straub tail” for short) was “can prevent the induction of Straub tail”. Turning to `Oc1cccc([C@]23CC=CC[C@H]2CN(CCc2ccccc2)C3)c1` (relative stereo) [drawing 74], the 50% effect level in data set [1] (ED50) was put at a dose of 19 mg/kg.

As to `CN1C[C@@H]2CCCC[C@]2(c2ccccc2)C1` (relative stereo), the ED50 was 90 mg/kg in data set [1] and over 200 mg/kg in the data set “Straub Tail (ST), oral”. As for `Oc1cccc([C@]23CC=CC[C@H]2CN(CCc2ccccc2)C3)c1` (relative stereo) [Example 7, N-Phenethyl-3a-(m-hydroxyphenyl)-2,3,3a,4,7,7a-cis-hexahydroisoindole], the ED50 in data set [2] was found to be 43 mg/kg. Take `COc1cccc([C@]23CC(C)=C(C)C[C@@H]2CN(CC2CC2)C3)c1` (relative stereo): the median effective dose (ED50) in data set [1] is 78 mg/kg; in “Straub Tail (ST), oral”, over 135 mg/kg.

For the compound `Oc1cccc([C@]23CC=CC[C@H]2CN(CCc2ccccc2)C3)c1` (relative stereo) [Example 8, N-Phenethyl-3a-(m-hydroxyphenyl)-2,3,3a,4,7,7a-hexahydroisoindole Hydrochloride], the “ED50, prevention of 90° Straub tail (narcotic antagonism)” value in data set [2] (Hydrochloride) was 54 mg/kg. Consider `CN1C[C@@H]2CC=CC[C@]2(c2ccccc2)C1` (relative stereo), for which the ED50 in data set [1] is 32 mg/kg; in “Straub Tail (ST), oral”, over 162 mg/kg. Consider `C=CCN1CC[C@]23c4c5ccc(O)c4O[C@H]2C(=O)CC[C@@]3(O)[C@H]1C5` [naloxone], for which the “prevention … of Straub tail” value in data set [3] is reported as “can prevent the induction of Straub tail”. In data set [1], `COc1cccc([C@]23CC=CC[C@H]2CN(CCc2ccccc2)C3)c1` (relative stereo) showed an ED50 of 26 mg/kg.

For `CC(C)=CCN1CCC2(C)c3cc(O)ccc3CC1C2C` (stereo not shown) [Pentazocine, reference compound], the “prevention … of Straub tail” value in data set [3] is “can prevent the induction of Straub tail”. In addition, the ED50 in data set [2] was 4 mg/kg. Turning to `C=CCN1C[C@@H]2CC=CC[C@]2(c2ccccc2)C1` (relative stereo), the ED50 in data set [1] is 140 mg/kg; in the data set “Straub Tail (ST), oral”, over 200 mg/kg.

The record behind these values is patent US4042707A, “3α-Arylhydroisoindoles” (E. I. Du Pont de Nemours and Company, priority 1976, dated 1977).
